Source: patent US11785950B2, “Use of dried chicory root to protect poultry and livestock against ectoparasites or as insect repellant” (Cosucra Groupe Warcoing S.A., priority 2017, dated 2023)

Columns and labels:
[1] = test system: scabies (dominantly caused by the mite Chorioptes bovis); test: Comparative trial vs Amitraz: clinical index of scabies lesions; format: in vivo; parameters: key to clinical index, active lesions (4): % area with type 4 lesions = squares type 4/350*100; details: for clinical index, active lesions (4): week not given
Text: The whole trial lasted for 15 weeks and was subdivided in […]: a pre-treatment period of 9 weeks, a treatment period of 3 weeks, and a 3 week post-treatment period.
The trial started with pre-treatment period of 9 weeks during which the animals were housed in a straw-bedded free stall and received no preventive treatment against scabies and lice. At the end of the pre-treatment period, the degree of scabies lesions (clinical index) and counts of mites and lice in skin-scraping samples were evaluated.
(§1) Twenty Belgian Blue cattle (6 heifers and 14 cows) were used in this trial. Cattle with mild or severe visual signs of scabies infection were selected, tied, shaved, scored for scabies lesions (clinical index) and skin scraping samples were taken for counts of mites and lice. Next, the animals were divided into 2 groups, a control group and a treatment group, based on the results of the clinical index and mite—lice counts at the end of the pre-treatment phase. At the start of the treatment period, animals were housed in a tie-stable, shaved and tied to prevent physical contact with other animals.
(§2) Control group: The animals in the positive control group were treated according to the standard ILVO (Flecmish Institute for Agriculture and Fishery) scabies prevention protocol which consisted of treatment with Amitraz (Tactic) and removal of the crusts, followed by a second treatment with interval of 10 days between both treatments. After the second treatment crusts were not removed.
Treatment group: The animals in the treatment group were not treated with Amitraz (Tactic), but were fed the indicative daily dose of 200 g of dried chicory root composition per animal per day. Said amount corresponds to roughly 1 to 2% of dried chicory root on the total feed. Dried chicory root composition was provided mixed through the daily dose of soybean meal and concentrate. The nutritional treatment with dried chicory root composition lasted for 3 consecutive weeks during which the animals receive their daily dose of dried chicory root composition. […]
In the last week of the pre-treatment period (week 0) and every following week till the end of the post-treatment period, the clinical index was determined as a measure for scabies lesions. Per animal, the number, size and type of scabies lesions was determined using a scoring form.
A distinction was made between dried, healing lesions (type 3) and wet, active lesions (type 4). The clinical index was calculated based on the total number of lesions using the formula: Area with lesions=total squares/350*100.
In addition, an alternative clinical index was calculated based on the number of active lesions: Area with lesions type 4=squares type 4/350*100. […]

mites (Chorioptes bovis) = test: Comparative trial vs Amitraz: mite count in skin scraping samples; format: in vivo; details: week 4; 10 animals per group
Text: as §1, §2
Treatment group: The animals in the treatment group were not treated with Amitraz (Tactic), but were fed the indicative daily dose of 200 g of dried chicory root composition per animal per day. […]
Using microscopy, the numbers of mites and lice in each sample were counted and the types of mites and lice were identified by an expert at the Laboratory of Parasitology, Ghent University, Belgium. […]

In the case of `Cc1ccc(/N=C/N(C)/C=N/c2ccc(C)cc2C)c(C)c1` [Tactic, Amitraz], the “clinical index, active lesions (4)” value ([1]; 3rd week pair of columns) is reported as 0.0, the “clinical index, active lesions (4)” value ([1]; 4th week pair of columns) is reported as 0.0 and the “clinical index, active lesions (4)” value ([1]; 5th week pair of columns) is reported as 0.0. The “clinical index of Tactic group higher than that of dried chicory root group, 95% confidence maximum” value ([1]; equivalence test) was at most 15%, the “WBT samples positive for Chorioptes bovis” value (mites (Chorioptes bovis)) was 3 samples and the “hock samples positive for Chorioptes bovis” value (mites (Chorioptes bovis)) was “one”.
